Measured values: ChEMBL document CHEMBL1201862, “PubChem BioAssay data set” (2004)
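Step 1: Grow cells in 96-well plates. Step 2: Expose to compound for 48 hours at 5 concentrations. Step 3: Interpolate endpoints linearly; if unreached, use highest concentration. GI50: concentration for 50% inhibition of growth.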 Activity calls are given as the source filed them. Cut-off read from the data, not from the text of the source: active = GI50 up to about 1.1 µM and inactive = higher.

Legend:
Experiment in all cases: NCI anticancer screen, dose series, 48 h
OVCAR-5 = test system: OVCAR-5
A498 = test system: A498
NCI-H226 = test system: NCI-H226
SNB-78 = test system: SNB-78
HT-29 = test system: HT-29
KM12 = test system: KM12
ACHN = test system: ACHN
NCI-H460 = test system: NCI-H460
CAKI-1 = test system: CAKI-1
SK-MEL-5 = test system: SK-MEL-5
SF-539 = test system: SF-539
HL-60 = test system: HL-60
RXF 393 = test system: RXF 393
EKVX = test system: EKVX
SK-MEL-28 = test system: SK-MEL-28
SNB-19 = test system: SNB-19
SNB-75 = test system: SNB-75
SR = test system: SR

Question: Which results are given for `CC(=O)Nc1ccccc1[S+]([O-])c1ccccc1` (stereo not drawn)?
Answer: GI50 (OVCAR-5): 4.21 µM (inactive); GI50 (A498): > 100 µM (inactive); GI50 (NCI-H226): > 100 µM (inactive); GI50 (SNB-78): > 100 µM (inactive); GI50 (HT-29): > 100 µM (inactive); GI50 (KM12): > 100 µM (inactive); GI50 (ACHN): > 100 µM (inactive); GI50 (NCI-H460): > 100 µM (inactive); GI50 (CAKI-1): > 100 µM (inactive); GI50 (SK-MEL-5): > 100 µM (inactive); GI50 (SF-539): > 100 µM (inactive); GI50 (HL-60): > 100 µM (inactive); GI50 (RXF 393): > 100 µM (inactive); GI50 (EKVX): > 100 µM (inactive); GI50 (SK-MEL-28): > 100 µM (inactive); GI50 (SNB-19): > 100 µM (inactive); GI50 (SNB-75): > 100 µM (inactive)

Question: `CC1=C2CCCC2=C/C(=N/Nc2ccc([N+](=O)[O-])cc2[N+](=O)[O-])CC1` was tested. Which GI50 (OVCAR-5) did it give?
Answer: Its GI50 is > 100 µM (inactive).

Question: And the GI50 (NCI-H226)?
Answer: The GI50 was > 100 µM (inactive).

Question: And the GI50 (SR)?
Answer: Its GI50 is > 100 µM (inactive).

Question: What about the GI50 (SNB-78) of the same compound?
Answer: Its GI50 is > 100 µM (inactive).

Question: And the GI50 (HT-29)?
Answer: Its GI50 is > 100 µM (inactive).

Question: What about the GI50 (KM12) of the same compound?
Answer: The GI50 was > 100 µM (inactive).

Question: And the GI50 (ACHN)?
Answer: The GI50 was > 100 µM (inactive).

Question: And the GI50 (NCI-H460)?
Answer: Its GI50 is > 100 µM (inactive).

Question: What about the GI50 (CAKI-1) of the same compound?
Answer: The GI50 was > 100 µM (inactive).

Question: And the GI50 (SK-MEL-5)?
Answer: The GI50 was > 100 µM (inactive).

Question: What about the GI50 (SF-539) of the same compound?
Answer: The GI50 was > 100 µM (inactive).

Question: And the GI50 (HL-60)?
Answer: Its GI50 is > 100 µM (inactive).

Question: And the GI50 (RXF 393)?
Answer: Its GI50 is > 100 µM (inactive).

Question: What about the GI50 (EKVX) of the same compound?
Answer: Its GI50 is > 100 µM (inactive).

Question: What about the GI50 (SK-MEL-28) of the same compound?
Answer: Its GI50 is > 100 µM (inactive).

Question: What about the GI50 (SNB-19) of the same compound?
Answer: Its GI50 is > 100 µM (inactive).

Question: And the GI50 (SNB-75)?
Answer: The GI50 was 45.2 µM (inactive).

Question: What does the source list for `Cc1nnc2n1N=C(c1ccc(-c3ccc([N+](=O)[O-])cc3)o1)CS2`?
Answer: GI50 (OVCAR-5): > 100 µM (inactive); GI50 (NCI-H226): > 100 µM (inactive); GI50 (SR): > 100 µM (inactive); GI50 (SNB-78): > 100 µM (inactive); GI50 (KM12): > 100 µM (inactive); GI50 (ACHN): > 100 µM (inactive); GI50 (NCI-H460): > 100 µM (inactive); GI50 (CAKI-1): > 100 µM (inactive); GI50 (SF-539): > 100 µM (inactive); GI50 (HL-60): > 100 µM (inactive); GI50 (SK-MEL-28): > 100 µM (inactive); GI50 (SNB-19): > 100 µM (inactive); GI50 (SNB-75): > 100 µM (inactive)

Question: With `CS(=O)(=O)CSCSSCS(C)(=O)=O` as the compound, how does the GI50 (OVCAR-5) read?
Answer: Its GI50 is 43.2 µM (inactive).

Question: And the GI50 (A498)?
Answer: The GI50 was 88.9 µM (inactive).

Question: And the GI50 (NCI-H226)?
Answer: The GI50 was > 100 µM (inactive).

Question: What about the GI50 (SR) of the same compound?
Answer: Its GI50 is 16.5 µM (inactive).

Question: And the GI50 (SNB-78)?
Answer: Its GI50 is 49.4 µM (inactive).

Question: What about the GI50 (HT-29) of the same compound?
Answer: The GI50 was > 59.7 µM (inactive).

Question: And the GI50 (KM12)?
Answer: The GI50 was 44.2 µM (inactive).

Question: What about the GI50 (ACHN) of the same compound?
Answer: Its GI50 is 40 µM (inactive).

Question: What about the GI50 (NCI-H460) of the same compound?
Answer: The GI50 was 26.2 µM (inactive).

Question: And the GI50 (CAKI-1)?
Answer: The GI50 was 25.4 µM (inactive).

Question: And the GI50 (SK-MEL-5)?
Answer: The GI50 was 40.8 µM (inactive).

Question: What about the GI50 (SF-539) of the same compound?
Answer: The GI50 was 22 µM (inactive).

Question: And the GI50 (HL-60)?
Answer: The GI50 was 21.1 µM (inactive).

Question: And the GI50 (RXF 393)?
Answer: The GI50 was 17.1 µM (inactive).

Question: What about the GI50 (EKVX) of the same compound?
Answer: The GI50 was > 100 µM (inactive).

Question: What about the GI50 (SK-MEL-28) of the same compound?
Answer: The GI50 was 24.6 µM (inactive).

Question: And the GI50 (SNB-19)?
Answer: The GI50 was 74.3 µM (inactive).

Question: What about the GI50 (SNB-75) of the same compound?
Answer: The GI50 was > 63.4 µM (inactive).

Question: Which GI50 (OVCAR-5) does the source give for `O=C(c1ccc2c3c(ccc(C(=O)C(F)(F)F)c13)CC2)C(F)(F)F` here?
Answer: Its GI50 is > 100 µM (inactive).

Question: What about the GI50 (A498) of the same compound?
Answer: Its GI50 is 47.9 µM (inactive).

Question: What about the GI50 (NCI-H226) of the same compound?
Answer: Its GI50 is > 100 µM (inactive).

Question: And the GI50 (SR)?
Answer: The GI50 was 60.1 µM (inactive).

Question: And the GI50 (SNB-78)?
Answer: Its GI50 is > 100 µM (inactive).

Question: What about the GI50 (HT-29) of the same compound?
Answer: Its GI50 is 52.1 µM (inactive).

Question: And the GI50 (KM12)?
Answer: The GI50 was 44.1 µM (inactive).

Question: What about the GI50 (ACHN) of the same compound?
Answer: The GI50 was 58.9 µM (inactive).

Question: And the GI50 (NCI-H460)?
Answer: The GI50 was 69.8 µM (inactive).

Question: What about the GI50 (CAKI-1) of the same compound?
Answer: The GI50 was > 100 µM (inactive).

Question: And the GI50 (SF-539)?
Answer: The GI50 was > 100 µM (inactive).

Question: What about the GI50 (RXF 393) of the same compound?
Answer: Its GI50 is 55.6 µM (inactive).

Question: And the GI50 (EKVX)?
Answer: Its GI50 is 81.7 µM (inactive).

Question: And the GI50 (SK-MEL-28)?
Answer: The GI50 was 62.2 µM (inactive).

Question: And the GI50 (SNB-19)?
Answer: Its GI50 is 86.7 µM (inactive).

Question: What about the GI50 (SNB-75) of the same compound?
Answer: The GI50 was 29.4 µM (inactive).

Question: `CN(C)CCNC(=O)c1cccc2c1nc(-c1ccccc1)c1ccccc12` was tested. Which GI50 (OVCAR-5) did it give?
Answer: The GI50 was 4.66 µM (inactive).

Question: And the GI50 (A498)?
Answer: The GI50 was 0.91 µM (active).

Question: What about the GI50 (NCI-H226) of the same compound?
Answer: The GI50 was 2.83 µM (inactive).

Question: And the GI50 (SNB-78)?
Answer: The GI50 was 10.4 µM (inactive).

Question: What about the GI50 (HT-29) of the same compound?
Answer: Its GI50 is 3.35 µM (inactive).

Question: What about the GI50 (KM12) of the same compound?
Answer: The GI50 was 6.19 µM (inactive).

Question: And the GI50 (ACHN)?
Answer: The GI50 was 2.88 µM (inactive).

Question: What about the GI50 (NCI-H460) of the same compound?
Answer: The GI50 was 0.4 µM (active).

Question: And the GI50 (CAKI-1)?
Answer: Its GI50 is 3.74 µM (inactive).

Question: What about the GI50 (SK-MEL-5) of the same compound?
Answer: Its GI50 is 2.13 µM (inactive).

Question: What about the GI50 (SF-539) of the same compound?
Answer: The GI50 was 2.19 µM (inactive).

Question: What about the GI50 (HL-60) of the same compound?
Answer: The GI50 was 1.26 µM (inactive).

Question: What about the GI50 (RXF 393) of the same compound?
Answer: The GI50 was 2.58 µM (inactive).

Question: And the GI50 (EKVX)?
Answer: Its GI50 is 12.9 µM (inactive).

Question: What about the GI50 (SK-MEL-28) of the same compound?
Answer: Its GI50 is 9.1 µM (inactive).

Question: What about the GI50 (SNB-19) of the same compound?
Answer: Its GI50 is 11.3 µM (inactive).

Question: And the GI50 (SNB-75)?
Answer: The GI50 was 6.76 µM (inactive).
